# Data as given in US12208160B2, “Pharmaceutical compositions comprising coated API” (Catalent U.K. Swindon Zydis Limited, priority 2020, dated 2025).
# Assays:
# [1] = Low volume dissolution of Acetaminophen raw material and coated Acetaminophen material; format: physicochemical; details: APAP
# Experimental: This analytical method is used to determine the low volume dissolution of Acetaminophen raw material and coated Acetaminophen material. […] The following is the working standard 5-point calibration curve preparation for this Example. Calibration Point 1: Weigh accurately 50.0 mg of Acetaminophen reference standard into a 100 mL volumetric flask. Dissolve in approximately 80 mL of dissolution media and sonicate until fully dissolved. Dilute to volume with dissolution media mixing thoroughly. This is the calibration point 1 working standard solution (concentration: approximately 0.5 mg/mL). Calibration Point 2: Weigh accurately 100.0 mg of Acetaminophen reference standard into a 100 mL volumetric flask. Dissolve in approximately 80 mL of dissolution media and sonicate until fully dissolved. Dilute to volume with dissolution media mixing thoroughly. This is the calibration point 2 working standard solution (concentration: approximately 1.0 mg/mL). Calibration Point 3: Weigh accurately 200.0 mg of Acetaminophen reference standard into a 100 mL volumetric flask. Dissolve in approximately 80 mL of dissolution media and sonicate until fully dissolved. Dilute to volume with dissolution media mixing thoroughly. This is the calibration point 3 working standard solution (concentration: approximately 2.0 mg/mL). Calibration Point 4: Weigh accurately 500.0 mg of Acetaminophen reference standard into a 100 mL volumetric flask. Dissolve in approximately 80 mL of dissolution media and sonicate until fully dissolved. Dilute to volume with dissolution media mixing thoroughly. This is the calibration point 4 working standard solution (concentration: approximately 5.0 mg/mL). Calibration Point 5: Weigh accurately 550.0 mg of Acetaminophen reference standard into a 100 mL volumetric flask. Dissolve in approximately 80 mL of dissolution media and sonicate until fully dissolved (this standard solution may require slight heating to dissolve all Acetaminophen). If required, allow the solution to equilibrate to room temperature, dilute to volume with dissolution media and mix thoroughly. This is the calibration point 5 working standard solution (concentration: approximately 5.5 mg/mL). Acetaminophen raw material: Six samples are analyzed. […] The individual software potencies for each vessel will be input into the DissoPRO software at the start of experiment. Six samples are analyzed. For each sample, weigh accurately 125 mg of coated Acetaminophen material into a Pion low volume dissolution vessel. The individual software potencies for each vessel will be input into the DissoPRO software at the start of experiment. […] The Coated APAP has undergone coating at bench scale operation using the Resonance Acoustic Mixing manufacturing process. […] The slow release profile is indicative of achieving a successful coating and preventing the API from readily dissolving and therefore a taste masked API.
# [2] = Mid Volume Dissolution (MVD) 60-Minute Profile of freeze-dried finished product; format: physicochemical; details: within ~5 mins; note to FIG. 26
# Experimental: This analytical method is used to determine the mid-volume dissolution of freeze-dried finished products. The method employs a Distek small volume conversion kit. The method employs the Pion Rainbow Dynamic Dissolution Monitor (RDDM) at 75 rpm, with pH 7.2 phosphate buffer as a dissolution medium. Analysis is by fibre optic UV detection using the Pion μDISS Profiler with a UV detection under the 2nd derivative function using a 2 mm pathlength. Pathlength, dissolution media and wavelength range will vary depending on the API properties. […] A five-point calibration Curve is set up on the Pion software. The amount of API reference standard weighed will be dependent on the API. The following is an example for Ibuprofen:
# As per USP <711>—A small, loose piece of non-reactive material, such as not more than a few turns on wire helix, may be attached to the freeze-dried tablets that would otherwise float. Add one freeze-dried tablet to each of the six dissolution vessels. The six probes will measure the absorbance of the API in the vessels and determine the % drug dissolved based on the calibration curve.
# An additional methodology Mid Volume Dissolution (MVD) based on the 60-minute profile for the coated API has been developed to be able to directly compare dissolution profiles of the coated API with the resulting finished product units. […]
% Acetaminophen dissolved ([1]; 0.0 minutes),% Acetaminophen dissolved ([1]; 5 minutes),% Acetaminophen dissolved ([1]; 10 minutes),% Acetaminophen dissolved ([1]; 15 minutes),% Acetaminophen dissolved ([1]; 20 minutes),% Acetaminophen dissolved ([1]; 25 minutes),% Acetaminophen dissolved ([1]; 30 minutes),equilibrium point (% dissolved) ([1]; within the first two minutes),full release [2],SMILES
0%,127%,128%,128%,128%,128%,128%,over 100%,,"CC(=O)Nc1ccc(O)cc1 [Raw Material - AN190319, Acetaminophen]"
,,,,,,,,~80%,"CC(C)Cc1ccc(C(C)C(=O)O)cc1 (stereo not drawn) [Raw Material, Ibuprofen]"
